Assay results as given in patent US20190075796A1, “Increased walnut yields with brassinosteroid application” (priority 2017, published 2019).

Experiments:
[1] = test system: walnut cv. Serr; test: Foliar spray field trial in a walnut orchard, cv. Serr: fruit set and nut weights; assay type: in vivo; details: all treatments of HBR except HBR 0.4 ppm
Protocol: (§1) Testing was conducted in two contiguous walnut orchards located in Pirque, Metropolitan Region of Chile. The first orchard is of cultivar Serr, planted at 11×11 m and 20 years old. The second orchard is of cultivar Chandler, planted at 7×6 m and 5 years old. In the 2014/2015 season yield of cultivar Serr was 4,300 kilograms of walnuts in shells per hectare, and in cultivar Chandler the yield was 2,300 kilograms of walnuts in shells per hectare.
During the 2014/2015 season, four experimental and one control treatments were applied to the Pirque orchard. Treatments were foliar sprays with solutions of Homobrassinolide (HBR) at 0.4, 4.0 and 20 ppm, and HBR 4.0 ppm+CPPU 10 ppm. Control was water. Treatment of each cultivar took place 10 days after said cultivar reached approximately 10% pistillate flower receptive. Each tree was sprayed with approximately 250 ml of solution. At that volume the sprayed leaves and branches are wetted and excess solution is dripping off the tree. Applications were made to small branches having 2 to 4 terminal buds with pistillate flowers, equivalent to 3 to 12 potential fruits per replication. The experimental design was randomized blocks with 10 replications. […]
The measurement of fruit set was determined by the difference between the number of fruit harvested and the number of flowers/fruitlets sprayed in late flowering. […]

[2] = test system: pollen of cv. Chandler; test: In vitro pollen germination and pollen tube growth; assay type: cell-based, walnut; details: 20° C.
Protocol: An in vitro experiment was done to study the effects of the same treatments as Study 1 on pollen of cv. Chandler. The growing media used for pollen germination and tube growth was prepared in Petri dishes, and consisted of a solution of 10% sucrose and 1% agar in 50 mg per liter boric acid, plus either 0.4 ppm HBR, 4.0 ppm HBR, 20 ppm HBR, or 4.0 ppm HBR+10 pm CPPU. The control solution was distilled water. The experimental design was randomized with 4 replications, using Petri dishes as experimental units. Chandler pollen was sown onto the media with a fine brush, and incubated in a growth chamber for 24 hours at 20° C. Observations of pollen germination were done after 12 hours and pollen tube growth after 24 hours respectively. An Olympus CX31 microscope at 40× was used, and photographs were taken with a ProgRes® C3 camera, using the Capture-Pro computational program. The percentage of germination was determined using the GSA Image Analyzer 3.6.5 program, and the pollen tube length with the Qcad program. FIG. 11 is a representative 20× photomicrograph of germinating Chandler pollen.

[3] = test system: walnut cv. Chandler; test: Foliar spray field trial in a walnut orchard, cv. Chandler: fruit set and nut weights; assay type: in vivo
Protocol: as §1
During the 2014/2015 season, four experimental and one control treatments were applied to the Pirque orchard. Treatments were foliar sprays with solutions of Homobrassinolide (HBR) at 0.4, 4.0 and 20 ppm, and HBR 4.0 ppm+CPPU 10 ppm. Control was water. Treatment of each cultivar took place 10 days after said cultivar reached approximately 10% pistillate flower receptive. Each tree was sprayed with approximately 250 ml of solution. At that volume the sprayed leaves and branches are wetted and excess solution is dripping off the tree. Applications were made to small branches having 2 to 4 terminal buds with pistillate flowers, equivalent to 3 to 12 potential fruits per replication. The experimental design was randomized blocks with 10 replications. Ten trees per cultivar received treatment and all treatments were applied to separate spray targets of each tree. The spray targets included pistillate flowers, catkins and leaves.
Walnut flowering of both cultivars in the season was prolonged and irregular, extending for 2 weeks in each cultivar. Bloom was mainly protandrous with catkins fall of 20-30% during the pistillate flowering period for both cultivars. The vegetative growth was normal. When flowering of cv. Serr reached 10 to 20% of receptivity, Aminoethoxy vinyl-glycine was applied at a concentration of 125 ppm to all conditions to delay ripening.
The measurement of fruit set was determined by the difference between the number of fruit harvested and the number of flowers/fruitlets sprayed in late flowering. After harvest, the nuts from the experiment were dried in laboratory at a temperature of 35° C. for 12 hours, and then the nut shell was removed, measuring the weight of both (in shell and shelled) independently.

## CC[C@@H](C(C)C)C(O)C(O)[C@@H](C)[C@H]1CC[C@H]2[C@@H]3COC(=O)[C@H]4C[C@H](O)[C@H](O)C[C@]4(C)[C@H]3CC[C@]12C (stereo in doubt) [HBR, homobrassinolide]
[1]
  final weight of shelled walnuts versus control: greater than control
[2]; 0.4 ppm HBR in medium, observed after 12 hours
  pollen germination versus control: less than control
[2]; 4.0 ppm HBR in medium, observed after 12 hours
  pollen germination versus control: similar
[2]; 4.0 ppm HBR in medium, observed after 24 hours
  pollen tube growth versus control: greater than control
[2]; 20 ppm HBR in medium, observed after 12 hours
  pollen germination: no germination
[3]; HBR 0.4 ppm
  fruit set, increase with respect to the control: 6.2%
[3]; HBR 4.0 ppm
  final weight of walnuts in shell, increase over control: 16.9%
  fruit set, increase with respect to the control: 5.0%
[3]; HBR 20 ppm
  final weight of walnuts in shell, increase over control: 29.6%
  fruit set, increase with respect to the control: 13.5%
